Where “and” joins values, the source holds several entries; their conditions need not be identical. Identical values can stand only once. Like-named read-outs stand apart in the source and are kept apart here.
Columns and labels:
[1] = Mouse pharmacokinetics of IMM60 after i.v. liposomal or soluble IMM60 (Example 7); format: in vivo, mouse (C57BL/6 and CD1)
Description: The two strains of mice that were compared were CD1 mice (not to be confused with CD1d-KO mice) and C57BL/mice. The half-life, volume of distribution, clearance, AUC, and Cmax were calculated using the one-compartmental model with first-order kinetics.
Lipid formulation: DSPG:DSPC:IMM60 (3.44:4.37:1 mg/ml) in a 250 mM sucrose, 145 mM NaCl, 10 mM sodium phosphate, pH 6.5 buffer. Before use, Vials of liposomal IMM60 were thawed at room temperature (21° C.-22° C.), then heated to 55° C. for 10 minutes using a heated water bath. Vials were mixed by inversion six times, cooled to room temperature, and diluted to either 100 ng/ml or 10,000 ng/ml using injection grade saline (0.9% NaCl).
Soluble IMM60: Lyophilized material was resuspended in Chloroform:methanol:water (10:10:3) to 10 mg/ml (vials of 100 μg in 10 μl) swirled around to capture all the material and then Vehicle solution (150 mM NaCl, 0.5% Tween20 in distilled water) added quickly to a final concentration of 100 μg/ml (for 100 μg in 10 μl, added 990 μl of Vehicle), then then heated to 80-90° C. for 5 minutes, and sonicated with a waterbath sonicator for 5 minutes. Samples were diluted to 10,000 ng/ml using injection grade saline.
Mice were warmed up for 20-30 minutes in cages place in a 37° C. heating chamber. Mice within each group were injected intravenously, using 27G insulin syringe needles, with 100 μl (C57BL/mice) or 150 μl (CD-1 mice) of the recorded dose over approximately 4 seconds.
Plasma samples were analyzed by LC/MS/MS at Frontage Laboratories. […] The method uses alpha GalCer (analog to IMM60) as an internal standard and the mass spectroctoscopic ionization is electrospray in the positive ionization mode. The range of calibration standards is between 1 ng/mL to 1000 ng/mL IMM60 in mouse plasma.
Plasma concentrations were measured 10 and 180 minutes after IV administration. The half-life, clearance, and AUC(0-∞) were calculated using the one-compartmental model with first-order kinetics since only two time points were samples along the PK profile. Using these assumptions allow for the calculation of PK parameters. Other assumption is that the T10 minutes is substituted for T0 and C10 minutes is substituted for C0 and Cmax to solve for PK parameters of liposomal IMM60.
Statistical Calculations: the mean, standard deviation (SD), standard error of the mean (SE), p-value from the t-test (equal or unequal variances) was calculated using Microsoft Excel 201 (Microsoft Corporation). Equal or unequal variances were chosen based on use of the F-test function. All t-test comparisons were performed with the 1000 ng IMM60 in liposome form as the control. Half-life T(1/2) in Mouse of IMM60: The half-life for mice of IMM60 is calculated using Equation 1 using the one-compartment model with 1st order kinetics.

[2] = tested on: iNKT cells / immune cells; assay: PD-1 / PD-L1 upregulation on immune cells by soluble IMM60
[3] = individual mouse, C57BL/6, 1000 ng i.v., listed as IMM60 soluble
[4] = individual mouse, CD1, 1500 ng i.v., listed as IMM60 soluble

## CCCCCCCCCCCCCCCCCCCCCCCCCC(=O)N[C@@H](CO[C@H]1CC[C@H](O)[C@H](O)[C@H]1O)[C@H](O)[C@H](O)CCCCCCCCCCCCCC [soluble IMM60]
[1]; individual mouse, C57BL/6, 1000 ng i.v., 10 min, listed as IMM60 soluble
  Cmax: 87.7 ng/mL
[1]; [3]
  AUC(0-∞): 12,418 ng/ml/min
  Vd: 0.0114 L
  half-life: 1.636 h
[1]; individual mouse, CD1, 1500 ng i.v., 10 min, listed as IMM60 soluble
  Cmax: 105.0 ng/mL
[1]; [4]
  AUC(0-∞): 17,976 ng/ml/min
  Vd: 0.01429 L
  half-life: 1.9773 h
[1]; mice
  Half-life and volume of distribution vs liposomal: longer half-life and larger volume of distribution
[1]; mouse, plasma, iv, 0.001 mg, average, C57BL/6, 1000 ng i.v.
  AUC(0-inf): 204 ng·h/mL
[1]; mouse, plasma, iv, 0.001 mg, average, C57BL/6, 1000 ng i.v., 10 min
  Cmax at 10 min: 89.7 ng/mL
[1]; mouse, plasma, iv, 0.001 mg, average, C57BL/6, 1000 ng i.v., read-out: Clearance
  clearance: 0.08 mL/min
[1]; mouse, plasma, iv, 0.001 mg, average, C57BL/6, 1000 ng i.v., read-out: Half-life
  half-life: 1.58 h
[1]; mouse, plasma, iv, 0.001 mg, average, C57BL/6, 1000 ng i.v., read-out: Vd
  Vd: 0.0112 L
[1]; mouse, plasma, iv, 0.001 mg, individual mouse, C57BL/6, 1000 ng i.v.
  AUC(0-inf): 201 ng·h/mL
[1]; mouse, plasma, iv, 0.001 mg, individual mouse, C57BL/6, 1000 ng i.v., 10 min
  Cmax at 10 min: 91.7 ng/mL
[1]; mouse, plasma, iv, 0.001 mg, individual mouse, C57BL/6, 1000 ng i.v., read-out: Clearance
  clearance: 0.08 mL/min
[1]; mouse, plasma, iv, 0.001 mg, individual mouse, C57BL/6, 1000 ng i.v., read-out: Half-life
  half-life: 1.52 h
[1]; mouse, plasma, iv, 0.001 mg, individual mouse, C57BL/6, 1000 ng i.v., read-out: Vd
  Vd: 0.0109 L
[1]; mouse, plasma, iv, 0.0015 mg, average, CD1, 1500 ng i.v.
  AUC(0-inf): 269 ng·h/mL
[1]; mouse, plasma, iv, 0.0015 mg, average, CD1, 1500 ng i.v., 10 min
  Cmax at 10 min: 83.7 ng/mL
[1]; mouse, plasma, iv, 0.0015 mg, average, CD1, 1500 ng i.v., read-out: Clearance
  clearance: 0.09 mL/min
[1]; mouse, plasma, iv, 0.0015 mg, average, CD1, 1500 ng i.v., read-out: Half-life
  half-life: 2.32 h
[1]; mouse, plasma, iv, 0.0015 mg, average, CD1, 1500 ng i.v., read-out: Vd
  Vd: 0.0192 L
[1]; mouse, plasma, iv, 0.0015 mg, individual mouse, CD1, 1500 ng i.v.
  AUC(0-inf): 239 ng·h/mL
[1]; mouse, plasma, iv, 0.0015 mg, individual mouse, CD1, 1500 ng i.v., 10 min
  Cmax at 10 min: 62.4 ng/mL
[1]; mouse, plasma, iv, 0.0015 mg, individual mouse, CD1, 1500 ng i.v., read-out: Clearance
  clearance: 0.1 mL/min
[1]; mouse, plasma, iv, 0.0015 mg, individual mouse, CD1, 1500 ng i.v., read-out: Half-life
  half-life: 2.66 h
[1]; mouse, plasma, iv, 0.0015 mg, individual mouse, CD1, 1500 ng i.v., read-out: Vd
  Vd: 0.024 L
[1]; mouse, plasma, iv, 0.05 mg/kg, C57BL and CD1 strains, high dose
  AUC(0-inf): 204 to 269 ng·h/mL
[1]; mouse, plasma, iv, 0.05 mg/kg, C57BL and CD1 strains, high dose, read-out: Clearance
  clearance: 3.1 to 4.1 mL/min/kg
[1]; mouse, plasma, iv, 0.05 mg/kg, C57BL and CD1 strains, high dose, read-out: Cmax
  Cmax: 84 to 90 ng/mL
[1]; mouse, plasma, iv, 0.05 mg/kg, C57BL and CD1 strains, high dose, read-out: Half life T1/2
  half-life: 1.58 to 2.32 h
[1]; mouse, plasma, iv, 0.05 mg/kg, C57BL and CD1 strains, high dose, read-out: Volume of distribution Vd
  Vd: 0.558 to 0.639 L/kg
[1]; mouse, plasma, iv, 0.05 mg/kg, mean ± SE, 1000 ng (50 μg/kg) i.v.
  AUC(0-inf): 204 ng·h/mL
[1]; mouse, plasma, iv, 0.05 mg/kg, mean ± SE, 1000 ng (50 μg/kg) i.v., read-out: Cl
  clearance: 0.08 mL/min and 4.09 mL/min/kg
[1]; mouse, plasma, iv, 0.05 mg/kg, mean ± SE, 1000 ng (50 μg/kg) i.v., read-out: Cmax
  Cmax: 90 ± 2 ng/mL
[1]; mouse, plasma, iv, 0.05 mg/kg, mean ± SE, 1000 ng (50 μg/kg) i.v., read-out: Vd
  Vd: 0.558 ± 0.012 L/kg
[1]; mouse, plasma, iv, 0.05 mg/kg, mean ± SE, 1000 ng (50 μg/kg) i.v., read-out: t1/2
  half-life: 1.57 ± 0.06 h
[1]; mouse, plasma, iv, 0.05 mg/kg, mean ± SE, 1500 ng (50 μg/kg) i.v.
  AUC(0-inf): 269 ng·h/mL
[1]; mouse, plasma, iv, 0.05 mg/kg, mean ± SE, 1500 ng (50 μg/kg) i.v., read-out: Cl
  clearance: 0.09 mL/min and 3.13 mL/min/kg
[1]; mouse, plasma, iv, 0.05 mg/kg, mean ± SE, 1500 ng (50 μg/kg) i.v., read-out: Cmax
  Cmax: 84 ± 21 ng/mL
[1]; mouse, plasma, iv, 0.05 mg/kg, mean ± SE, 1500 ng (50 μg/kg) i.v., read-out: Vd
  Vd: 0.639 ± 0.163 L/kg
[1]; mouse, plasma, iv, 0.05 mg/kg, mean ± SE, 1500 ng (50 μg/kg) i.v., read-out: t1/2
  half-life: 2.32 ± 0.34 h
[2]
  PD-1 on iNKT cells: upregulate the levels of PD-1 on iNKT cells
  PD-L1 on a variety of immune cells: upregulates expression of PD-L1
